By melting point is commonly meant the temperature, or range, at which the solid turns liquid.

A value given as a limit tells only on which side of the number the result lay.

This is an account of results in a melting point compilation (Tetko et al.; mined from patent text by program, amines drawn as free bases though some values may be those of a salt).

The compound `NC(=O)CNC(=O)c1ccnc(-c2cccc3sc(Cc4cccc(C(F)(F)F)c4)cc23)c1` gave a melting point of 49 to 50 °C.

For the compound `COc1ccc(CCCN2C=CC=C3C2=Nc2ccc(Cl)cc2S(=O)(=O)N3C)cc1`, the melting point was 62 to 65 °C.

In turn, `CCCS(=O)(=O)Nc1c(C)c(C)c2c(c1C)C(c1ccc(C(C)C)cc1)CO2` (stereo not given) yielded a melting point of 133 to 134 °C.

`COC(=O)c1cc(I)c[nH]c1=O` came in with a melting point of 190 to 192 °C.

In turn, `Cn1ccc2c3c(C=O)c4ccccc4cc3ccc21` came in with a melting point of 175 to 176 °C.

In turn, `ClCC1c2ccccc2Oc2ccccc21` yielded a melting point of 104 to 106 °C.

Consider `C=CCN1C(=C)C(=O)N[C@@H](Cc2ccccc2)C1=O`, for which the melting point lay within 102 to 110 °C.

The compound `COc1ccc(Cl)cc1NC(=O)[C@H]1[C@H](c2ccc(S(N)(=O)=O)cc2)C1(C)C` (relative stereo) had a melting point of 129 to 133 °C.

For `CS(=O)(=O)O[C@@H](COC(c1ccccc1)(c1ccccc1)c1ccccc1)C[C@@H]1c2ccccc2Oc2ccc(F)cc2[C@H]1N=[N+]=[N-]`, the melting point was 55 to 56 °C.

For `CCOC(C)=NNc1ccc([N+](=O)[O-])cc1`, the melting point amounted to 102 °C.

For `CNC(=NCCCCc1nccs1)NC#N`, the melting point was 87 to 89.5 °C.

The compound `CCOC(=O)c1c2ccc(Cl)cc2c(-c2ccccc2)n1CCO` returned a melting point of 114 to 116 °C.

On to `N#CC(C#N)(OC(=O)c1ccc(Cl)cc1)c1ccc(Cl)cc1`, for which the melting point was in the range of 158 to 159 °C.

For `CC1=NNS(=O)(=O)c2sc(Cl)cc21`, the melting point fell in the range of 182 to 184 °C.

Compound `Cc1ccc(S(=O)(=O)NCl)cc1` registered a melting point of 201 to 206 °C.

In turn, `CC(C)NC(=O)Nc1ccc(Oc2ccc3sncc3c2)c(C(F)(F)F)c1` displayed a melting point of 158 °C.

The compound `Cc1nc(-c2ccc(O)cc2)[nH]c1Cl` returned a melting point of 226 to 228 °C.

Compound `CN(C)CCCCCCNc1nc2cc(Cl)c(Cl)cc2nc1-c1ccccn1` registered a melting point of 88 to 90 °C.

In the case of `CCCCC(=N)NC(=S)Nc1ccc(Cl)cc1`, the melting point lay in the range of 164 to 166 °C.

In turn, `NC(=O)COc1ccc(-c2n[nH]c3c2Cc2ccccc2-3)cc1` came in with a melting point of 247 to 248 °C.

Turning to `COc1ccc(CNc2cc(OC)c(Cl)cc2OC)cc1`, the melting point is 53 to 63 °C.

In turn, `O=c1[nH][nH]c(=O)n1Cc1ccccc1` registered a melting point of 185 to 188 °C.

On to `C=CCOc1c(I)cc(C(=O)CCC(=O)c2cc(OC)c(OC)c(OC)c2)cc1OC`, for which the melting point was 113 to 114 °C.

Take `COC(=O)c1ccc(CCC(C=Cc2ccc(O)c(OC)c2)=NO)o1`: the melting point fell in the range of 110 to 125 °C.

For `CC(=O)Nc1cnn2c1-c1ccccc1N(NC(C)=O)C2(C)C`, the melting point was 229 to 230 °C.

`CC(=O)N1CCC(c2nc3cccc4c3n2CCC4)CC1` registered a melting point of 139 to 140 °C.

Consider `COC(=O)C1CCc2cc(OC)ccc2C1=O` (stereo not given), for which the melting point lay in the range of 82 to 84 °C.

`COC(=O)CCC/C=C/c1ccc2cc(C)ccc2c1` showed a melting point of 50 °C.

Consider `CC(C)N1CCN=C1c1ccccc1C(=O)c1ccc(Cl)cc1`, for which the melting point lay in the range of 114 to 117 °C.

`Cc1cccc(C)c1NC(=O)CCC1CCC(=O)N1` (stereo not given) gave a melting point of 206 to 208 °C.

Turning to `CC(=O)OCC1CCn2c(c(C3=C(c4ccccc4Cl)C(=O)OC3=O)c3ccccc32)C1` (stereo not given), the melting point lay within 168 to 171 °C.

`COc1ccccc1CN1CCC(=O)C(C2c3ccccc3C=Cc3ccccc32)C1` (stereo not given) gave a melting point of 113 to 114 °C.

As for `COc1cc(F)ccc1N1CCN(CCCn2c(=O)[nH]c3c(c2=O)CCCC3)CC1`, the melting point lay in the range of 230 to 232 °C.

Compound `O=c1c2ccccc2nc(-n2ccnc2)n1-c1ccccc1` gave a melting point of 163 to 165 °C.

For the compound `COc1cc2c(cc1OC)C(C(S)(C#N)C(C)C(=O)O)=NCC2` (stereo not given), the melting point is 155 to 158 °C.

For the compound `O=C(C=Cc1ccccn1)c1ccc(OCc2ccccc2)cc1`, the melting point lay in the range of 131 to 134 °C.

In the case of `CC(=O)N(CC(C)Cl)c1c(C)cccc1C` (stereo not given), the melting point lay in the range of 41 to 42 °C.

`O=c1[nH]nc(-c2ccc(N=Cc3ccc(O)cc3)cc2)c(O)c1O` returned a melting point of 233 °C.

In turn, `Nc1cccc(Cc2ccccc2)n1` showed a melting point of 50.7 °C.

Compound `CC(C)(C=NO)Cc1ccc(Cl)c(Cl)c1` came in with a melting point of 84 °C.

With `CC(=NOC(C)(C)C)c1cnc(NC(=O)[C@H](CC2CCCC2)c2ccc(S(C)(=O)=O)cc2)cn1`, the melting point was 81 to 83 °C.

Take `CCC12CCC3C4CCC(=O)C=C4CCC3C1CCC2OC(=O)CC(C)C` (stereo not given): the melting point lay in the range of 82 to 89 °C.

`CCCNC(=O)NS(=O)(=O)c1ccccc1I` had a melting point of 211 to 212 °C.

Compound `C#Cc1cc(C)c(Oc2ccc(N)c(Nc3ccc(C#N)cc3)n2)c(C)c1` yielded a melting point of 79 to 82 °C.

As for `COc1ccc2c(c1)NC(c1ccccc1)CO2` (stereo not given), the melting point lay within 79 to 81 °C.

The compound `CN(C)C(=O)Cc1ccc2c(c1)sc1nc(=O)cc(-c3ccccc3)n12` showed a melting point of 238 to 240 °C.

`CCCc1c(C(=O)CCl)c2ccc(C(=O)OC)cc2n1Cc1ccccc1Cl` came in with a melting point of 143 to 145 °C.

As for `CCOc1ccc(N(c2ccccc2)C2(c3ccc(N(CC)Cc4ccccc4)cc3)OC(=O)c3ccccc32)cc1` (stereo not given), the melting point lay in the range of 163 to 173 °C.

`Fc1ccc(-c2ccc(C(F)(F)F)cn2)cc1` returned a melting point of 38 to 40 °C.

In the case of `CC(C)(C)OC(=O)N1CCC(Oc2ccc(C(=O)Cc3ccccn3)cc2)CC1`, the melting point lay within 138 to 140 °C.

`O=C(Nc1ccc(OCCO)cc1)c1ccc(N2CCNCC2)cc1` registered a melting point of more than 260 °C.

In turn, `CC(C)(C)OC(=O)N1CCC(c2ccc(COc3ccc(S(C)(=O)=O)cc3)cn2)CC1` displayed a melting point of 140 to 142 °C.

Compound `O=C1CCN(C2c3ccccc3-c3ccccc32)CC1` came in with a melting point of 135 °C.

Turning to `CCCCNc1c(C(=O)OCC)c(C)nc(N)c1[N+](=O)[O-]`, the melting point lay in the range of 98 to 99 °C.

Compound `COC(=O)C(Oc1ccc(Cl)cc1)c1ccc(Oc2cccc(C(F)(F)F)c2)cc1` (stereo not given) had a melting point of 79 to 82 °C.

For `CCCCCCCCSCCCC(=O)O`, the melting point was 33 to 34.5 °C.

For the compound `COC(=O)c1ccc(NC(=O)CSC(C)=O)cc1`, the melting point lay in the range of 137 to 139 °C.

`CC(C)c1ccc(C2(O)Cc3ccccc3C2=O)c(O)c1` (stereo not given) gave a melting point of 144 to 146 °C.

`C#CC1(OCc2ccc(Cl)cc2F)CCN(C(C)=O)CC1` came in with a melting point of 70 to 74 °C.

Take `CC(C)(C)c1cc(-c2csc(CN3CCSCC3)n2)cc(C(C)(C)C)c1O`: the melting point lay in the range of 153 to 155 °C.

For `Cc1nc(Cl)cc(NN)n1`, the melting point was 146 °C.

As to `CCC(C)(O)C1(c2cccc(OC)c2)CCN(C)CC1` (stereo not given), the melting point was 134 to 135 °C.

In turn, `CCOC(=O)Cn1c(C(=O)OCc2ccccc2)cc2cc(F)ccc21` returned a melting point of 75 to 76 °C.

Turning to `COc1cc(NC(=O)CC#N)cc(OC)c1OC`, the melting point lay within 146 to 147 °C.

In turn, `CC(=O)c1ccccc1-c1ccc(C(=O)O)cc1` registered a melting point of 199 to 201 °C.

The compound `CCSc1nc(N)nc2c1ncn2C1C=CC(CO)C1` (stereo not given) gave a melting point of 123 to 125 °C.

Turning to `CC(=NOc1ncc(F)c(N)n1)c1ccccc1`, the melting point lay within 163 to 165 °C.

Regarding `COc1nc2c(c(OC)n1)C(c1ccc(O)c(OC)c1)C1=C(COC1=O)N2` (stereo not given), the melting point is 294 to 296 °C.

For the compound `Oc1cc(C(F)(F)F)ccc1I`, the melting point is 36 to 38 °C.

Take `Cc1[nH]c(C(=O)O)c(C)c1C=O`: the melting point fell in the range of 233 to 237 °C.

`OC1CCCN(CC(O)COc2ccc(-c3ccc(F)cc3)cc2)C1` (stereo not given) displayed a melting point of 100 to 102 °C.

For the compound `CCOc1nn(-c2ccc(C(F)(F)F)cn2)cc1CCCOc1ccc(CCC(=O)O)c(OC(C)C)c1`, the melting point was 104 to 105 °C.

Consider `CCCCCCCCNC(=O)NCCCCC`, for which the melting point was 65 to 65.5 °C.

In turn, `CC(C)(C)OC(=O)NCc1cccc(OCCC2Oc3ccccc3N(Cc3cccc(Cl)c3)C2=O)c1` (stereo not given) returned a melting point of 98 to 100 °C.

For `CC(C)(C)OC(=O)N1CCC[C@H](C(=O)c2ccccc2)C1`, the melting point lay in the range of 75 to 79 °C.

On to `CCOC(=O)c1cnc(NN)nc1C(F)(F)F`, for which the melting point lay in the range of 89 to 90 °C.

In the case of `Nc1nc2c(s1)CC(CN1CCN(c3ccccn3)CC1)CC2` (stereo not given), the melting point was 177 to 179 °C.

As to `O=c1[nH]c2cc(Cl)ccc2c(O)c1-c1ccc(OCc2ccccc2)cc1`, the melting point is more than 350 °C.

Turning to `N#Cc1ccc(OCCCCCCOc2ccc(-c3cc4cc(C#N)ccc4o3)cc2)cc1`, the melting point lay in the range of 148 to 151 °C.

`COC(=O)C1=C(C(F)F)NC(C)=C(C(=O)OC(C)C)C1c1cccc(Cl)c1Cl` (stereo not given) yielded a melting point of 156 to 157 °C.

The compound `CS(=O)(=O)Nc1cc2occ(C#N)c(=O)c2cc1Oc1ccccc1` registered a melting point of 220 °C.

The compound `CCc1cc(C(=O)c2ccccc2Cl)c(-n2c(C)nnc2Cc2cccc(OC(N)=O)c2Cl)s1` gave a melting point of 134 to 136 °C.

On to `COC(CNC(=O)C=CC(=O)O)OC`, for which the melting point was 91 to 92 °C.

Consider `N#Cc1ccc2c([N+](=O)[O-])cc3c(c2c1)C(CCl)CN3` (stereo not given), for which the melting point was 231 to 234 °C.

As for `CN1C(=O)CN(NC(=O)CN)C(c2ccccc2)c2cc(Cl)ccc21` (stereo not given), the melting point fell in the range of 173 to 175 °C.

Consider `Cc1c(Br)c2c(c(C)c1NC(=O)CC(C)(C)C)C(c1ccc(C(C)C)cc1)CS2(=O)=O` (stereo not given), for which the melting point lay in the range of 211 to 213 °C.

Compound `COC(=O)Cc1ccccc1S(=O)(=O)NC(=S)Nc1nc(OC)nc(OC)n1` returned a melting point of 164 to 168 °C.

Turning to `CCN1CCN2C(=O)c3ccccc3C12c1ccc(Cl)cc1` (stereo not given), the melting point worked out at 114 °C.

In the case of `Nc1nc(Cl)c2ncn(C3CC(F)C(CO)O3)c2n1` (stereo not given), the melting point was found to be 172 °C.

Turning to `CCOC(=O)C(=O)c1ccc(OC)s1`, the melting point lay in the range of 136 to 137 °C.

Turning to `CC(C)C[C@H](NC(=O)[C@@H]1CCC(=O)O1)C(=O)OC(C)(C)C`, the melting point is 79 to 81 °C.

In the case of `CN(C)c1ncc(Br)cn1`, the melting point lay in the range of 81 to 82 °C.

`Cc1cc(C2=NNC(=O)CC2)ccc1CCCCN` yielded a melting point of 145 to 147 °C.

`CC(C(=O)O)c1cc(Cl)c(N)cc1Cl` (stereo not given) gave a melting point of 140 to 141 °C.

Take `CC(C)CN1C(=O)CCC(c2ccccc2Cl)c2cc(Cl)ccc21` (stereo not given): the melting point was in the range of 152 to 154 °C.
